# In the oligonucleotide strings, read from the 5' end, every base follows the letter of its sugar. An asterisk marks phosphorothioate; unmarked linkages are phosphodiester. Other units and linkages are bracketed, terminal groups are in braces. A string of capitals states the bases alone. {NAG37} = tridentate N-acetyl-galactosamine targeting ligand, structure (NAG37)s; [invAb] = inverted abasic unit; m = 2'-O-methyl; f = 2'-fluoro
# Experiments:
# ANGPTL3 gene [1] = test: Example 10: serum LDL in mice; format: in vivo, C57bl/6 mice; settings: 0.5 mg/kg sc
# Procedure: (§1) To assess the in vivo activity of further ANGPTL3 RNAi agents that are designed to target position 304 on the ANGPTL3 gene, six- to eight-week-old female C57bl/6 mice were used. Pre-dose serum samples were taken at day −1 after a four hour fast. At day 1, each mouse was given a single subcutaneous administration of 200 μl containing 0.5 mg/kg (mpk) of an ANGPTL3 RNAi agent in D5W (dextrose in 5% water), or control (D5W) with no RNAi agent, according to the dosing groups recited in Table 47.
# Each of the RNAi agents included a modified sequence and an N-acetyl-galactosamine-containing targeting ligand conjugated to the 5′ terminal end of the sense strand. (See Tables 3, 4, and 5 for modified sequences and targeting ligand structures). As noted above, each of the ANGPTL3 RNAi agents dosed in this study included nucleotide sequences designed to target the ANGPTL3 gene at position 304. The injections were performed between the skin and muscle (i.e. subcutaneous injections) into the loose skin over the neck and shoulder area. Three (3) mice in each group were tested (n=3). Serum was collected on days 8, 15, 22, 29, and for some groups on day 36 (i.e., Groups 1, 2, and 9-13 only). Mice were fasted for four hours prior to each collection. ANGPTL3 protein levels in serum were measured by ELISA assay (R&D Systems), according to the manufacturer's recommendations. Triglycerides, total cholesterol, high-density lipoprotein (HDL), and low-density lipoprotein (LDL) in serum were measured on a Cobas® Integra 400 (Roche Diagnostics), according to the manufacturer's recommendations.
# (§2) The ANGPTL3 protein levels, triglyceride levels, total cholesterol levels, HDL levels, and LDL levels for each animal were normalized. For normalization, the level of ANGPTL3 protein, triglyceride, HDL, and total cholesterol, respectively, for each animal at a time point, was divided by the pre-treatment level of expression in that animal (in this case at day −1) to determine the ratio of expression “normalized to pre-treatment.” Expression at a specific time point was then normalized to the D5W control group by dividing the “normalized to pre-treatment” ratio for an individual animal by the mean “normalized to pretreatment” ratio of all mice in the D5W control group.
# ANGPTL3 gene [2] = test: Example 13: serum triglycerides in HFCS diet-fed Rhesus monkeys; format: in vivo; settings: for Avg TG (Triglycerides) Normalized to Pre-Treatment (Fasted): 4.0 mg/kg sc on day 1 and day 29
# Procedure: ANGPTL3 RNAi agent AD05488 was further evaluated in high-fructose corn syrup (HFCS) diet-fed Rhesus monkeys. Rhesus monkeys were placed on an HFCS diet 37 days prior to dosing. These animals were known to develop increased plasma triglycerides greater than 180 mg/dL on the HFCS diet. On day 1 and again on day 29, four (4) Rhesus monkeys were administered a subcutaneous injection containing 4.0 mg/kg of ANGPTL3 RNAi agent AD05488 formulated in saline (n=4). Two additional Rhesus monkeys were administered normal saline control.
# Fasted blood samples were drawn for analysis, and serum samples were analyzed on days-8 (predose), 8, 15, 21, 29, and 36. ANGPTL3 expression levels, triglycerides, total cholesterol, high-density lipoprotein (HDL), and low-density lipoprotein (LDL) in serum were measured on a Cobas® Integra 400 (Roche Diagnostics), according to the manufacturer's recommendations.
# The ANGPTL3 protein levels, triglyceride levels, total cholesterol levels, HDL levels, and LDL levels for each animal were normalized. For normalization, the level of ANGPTL3 protein, triglyceride, HDL, and total cholesterol, respectively, for each animal at a time point, was divided by the pre-treatment level of expression in that animal (in this case at day −8) to determine the ratio of expression “normalized to pre-treatment.”
# ANGPTL3 gene [3] = test: Example 11: dose response, serum total cholesterol in mice; format: in vivo, C57bl/6 mice
# Procedure: as §1, with “dose response” for “in vivo activity”, “of” for “of further”, “agent AD05488,” for “agents that are designed to target position 304 on the ANGPTL3 gene,”, “the respective” for “0.5”, “dose” for “(mpk)”, “53:” for “47.”
# The RNAi agent tested (AD05488) included a modified sequence and an N-acetyl-galactosamine-containing targeting ligand conjugated to the 5′ terminal end of the sense strand. (See Tables 3, 4, and 5 for modified sequences and targeting ligand structures). The injections were performed between the skin and muscle (i.e. subcutaneous injections) into the loose skin over the neck and shoulder area. Four (4) mice in each group were tested (n=4). Serum was collected on days 8, 15, 22, and 29. Mice were fasted for four hours prior to each collection. ANGPTL3 protein levels in serum were measured by ELISA assay (R&D Systems), according to the manufacturer's recommendations. Triglycerides, total cholesterol, high-density lipoprotein (HDL), and low-density lipoprotein (LDL) in serum were measured on a Cobas® Integra 400 (Roche Diagnostics), according to the manufacturer's recommendations.
# as §2
substance,measurement,setting,value
"AD05488: RNAi agent duplex: antisense AM07235-AS, sense AM07234-SS (antisense mU*fA*mC*fUmGfAmUfCmAfAmAfUmAfUmGfUmUfGmAfG*mC; sense {NAG37}*[invAb]*mGmCmUmCmAmAmCmAfUfAfUmUmUmGmAmUmCmAmGmUmA*[invAb])",Avg LDL Normalized to Pre-Treatment and Control,ANGPTL3 gene [1]; Day 8,0.836
same,Avg LDL Normalized to Pre-Treatment and Control,ANGPTL3 gene [1]; Day 15,0.969
same,Avg LDL Normalized to Pre-Treatment and Control,ANGPTL3 gene [1]; Day 22,0.901
same,Avg LDL Normalized to Pre-Treatment and Control,ANGPTL3 gene [1]; Day 29,0.762
same,Avg LDL Normalized to Pre-Treatment and Control,ANGPTL3 gene [1]; Day 36,0.863
same,reductions in triglyceride levels,"ANGPTL3 gene [2]; 4.0 mg/kg on days 1 and 29, HFCS diet-fed Rhesus monkeys",reductions
same,Avg TG (Triglycerides) Normalized to Pre-Treatment (Fasted),ANGPTL3 gene [2]; Day 8,0.351
same,Avg TG (Triglycerides) Normalized to Pre-Treatment (Fasted),ANGPTL3 gene [2]; Day 15,0.244
same,Avg TG (Triglycerides) Normalized to Pre-Treatment (Fasted),ANGPTL3 gene [2]; Day 21,0.233
same,Avg TG (Triglycerides) Normalized to Pre-Treatment (Fasted),ANGPTL3 gene [2]; Day 29,0.302
same,Avg TG (Triglycerides) Normalized to Pre-Treatment (Fasted),ANGPTL3 gene [2]; Day 36,0.177
same,Avg Total Chol Normalized to Pre-Treatment and Control,"ANGPTL3 gene [3]; 0.05 mg/kg single sc day 1, Day 8",0.856
same,Avg Total Chol Normalized to Pre-Treatment and Control,"ANGPTL3 gene [3]; 0.05 mg/kg single sc day 1, Day 15",1.090
same,Avg Total Chol Normalized to Pre-Treatment and Control,"ANGPTL3 gene [3]; 0.05 mg/kg single sc day 1, Day 22",0.946
same,Avg Total Chol Normalized to Pre-Treatment and Control,"ANGPTL3 gene [3]; 0.05 mg/kg single sc day 1, Day 29",0.915
same,Avg Total Chol Normalized to Pre-Treatment and Control,"ANGPTL3 gene [3]; 0.1 mg/kg single sc day 1, Day 8",0.820
same,Avg Total Chol Normalized to Pre-Treatment and Control,"ANGPTL3 gene [3]; 0.1 mg/kg single sc day 1, Day 15",0.974
same,Avg Total Chol Normalized to Pre-Treatment and Control,"ANGPTL3 gene [3]; 0.1 mg/kg single sc day 1, Day 22",0.785
same,Avg Total Chol Normalized to Pre-Treatment and Control,"ANGPTL3 gene [3]; 0.1 mg/kg single sc day 1, Day 29",0.945
same,Avg Total Chol Normalized to Pre-Treatment and Control,"ANGPTL3 gene [3]; 0.5 mg/kg single sc day 1, Day 8",0.740
same,Avg Total Chol Normalized to Pre-Treatment and Control,"ANGPTL3 gene [3]; 0.5 mg/kg single sc day 1, Day 15",0.918
same,Avg Total Chol Normalized to Pre-Treatment and Control,"ANGPTL3 gene [3]; 0.5 mg/kg single sc day 1, Day 22",0.897
same,Avg Total Chol Normalized to Pre-Treatment and Control,"ANGPTL3 gene [3]; 0.5 mg/kg single sc day 1, Day 29",0.883
same,Avg Total Chol Normalized to Pre-Treatment and Control,"ANGPTL3 gene [3]; 1.0 mg/kg single sc day 1, Day 8",0.610
same,Avg Total Chol Normalized to Pre-Treatment and Control,"ANGPTL3 gene [3]; 1.0 mg/kg single sc day 1, Day 15",0.816
same,Avg Total Chol Normalized to Pre-Treatment and Control,"ANGPTL3 gene [3]; 1.0 mg/kg single sc day 1, Day 22",0.857
same,Avg Total Chol Normalized to Pre-Treatment and Control,"ANGPTL3 gene [3]; 1.0 mg/kg single sc day 1, Day 29",0.920
same,Avg Total Chol Normalized to Pre-Treatment and Control,"ANGPTL3 gene [3]; 2.5 mg/kg single sc day 1, Day 8",0.647
same,Avg Total Chol Normalized to Pre-Treatment and Control,"ANGPTL3 gene [3]; 2.5 mg/kg single sc day 1, Day 15",0.832
same,Avg Total Chol Normalized to Pre-Treatment and Control,"ANGPTL3 gene [3]; 2.5 mg/kg single sc day 1, Day 22",0.772
same,Avg Total Chol Normalized to Pre-Treatment and Control,"ANGPTL3 gene [3]; 2.5 mg/kg single sc day 1, Day 29",0.694
same,Avg Total Chol Normalized to Pre-Treatment and Control,"ANGPTL3 gene [3]; 5.0 mg/kg single sc day 1, Day 8",0.583
same,Avg Total Chol Normalized to Pre-Treatment and Control,"ANGPTL3 gene [3]; 5.0 mg/kg single sc day 1, Day 15",0.787
same,Avg Total Chol Normalized to Pre-Treatment and Control,"ANGPTL3 gene [3]; 5.0 mg/kg single sc day 1, Day 22",0.790
same,Avg Total Chol Normalized to Pre-Treatment and Control,"ANGPTL3 gene [3]; 5.0 mg/kg single sc day 1, Day 29",0.783

# — US12729377B2, “RNAi agents and compositions for inhibiting expression of angiopoietin-like 3 (ANGPTL3), and methods of use” (Arrowhead Pharmaceuticals, Inc., priority 2017, dated 2026)
